# Assay results as given in paper PMC9601805, “Characterization of the Escherichia coli pyridoxal 5′‐phosphate homeostasis protein (YggS): Role of lysine residues in PLP binding and protein stability” (Protein Science : A Publication of the Protein Society, 2022).
# Values joined by “and” are separate entries in the source; they are usually repeats but may differ in a detail not shown here. Identical values can stand only once. Like-named read-outs stand apart in the source and are kept apart here.
# Legend:
# [1] = target: T1, apo‐YggS (Escherichia coli, UniProt P67080); assay: biochemical; assay type: binding
# T1 construct: made in house; host or cells: E. coli HMS174(DE3)
# Protocol: The thermal stability of holo‐ and apo‐YggS forms was analyzed by differential scanning fluorimetry (DSF).
# Differential scanning fluorimetry (DSF) assays were performed on a Real Time PCR Instrument (CFX Connect Real Time PCR system, Bio‐Rad, Hercules, CA). In a typical experiment, 2 μM WT and variant apo‐YggS forms in 50 mM NaHEPES, pH 7.5, 50 mM NaCl, and Sypro Orange (5x, Thermo Scientific) were mixed with various ligands (total volume of 25 μl) in a 96‐well PCR plate. […] All samples were run in triplicate. Denaturation profiles were analyzed as described in Nardella et al.[40]
# [2] = target: eSHMT (Escherichia coli, UniProt P0A825); assay: PLP binding to eSHMT; details: read-out: K D for PLP
# [3] = target: T1, apo‐YggS; assay: Kinetics of PLP binding to apo-YggS, absorbance of protonated Schiff base; details: manual mixing time
# Protocol: (§1) Equilibrium binding analyses were carried out by measuring the decrease of protein intrinsic fluorescence observed upon the addition of increasing PLP concentrations to a fixed concentration of apo‐YggS (Figure 1b).
# We set up a novel in vitro discontinuous assay in which PLP transfer from holo‐YggS to the apo‐form of eSHMT could be followed (see Section 4 for details). In this assay, the increase in SHMT activity is measured as PLP dissociates from holo‐YggS and binds to apo‐SHMT, forming the catalytically active holo‐SHMT. […] The binding kinetics of free PLP to either apo‐YggS or apo‐SHMT was measured by manually mixing 20 μM free PLP with 20 μM of protein, observing the formation of the internal aldimine at 420 nm.
# [4] = target: T1, apo‐YggS; assay: biochemical; assay type: binding; remark: listed apart in the source
# Protocol: as §1
# Dissociation constants were calculated from saturation curves obtained measuring the protein fluorescence emission intensity as a function of increasing PLP concentration. […] Fluorescence emission spectra were recorded from 310 to 450 nm upon excitation at 280 nm. Excitation and emission slits were set at 3 and 5 nm, respectively.
# [5] = target: T2, E. coli serine hydroxymethyltransferase, apo-form (E. coli, UniProt P0A825 1-417); assay: SPR; SensiQ Pioneer, COOH5 chip; apo-SHMT immobilised via amine coupling (100 RU); holo-YggS injected at 0.24-180 μM in PBS with 0.005% surfactant P20, 30 μl/min; done twice; Scatchard analysis; details: both partners purified
# T2 construct: serine hydroxymethyltransferase of E. coli, encoded by the glyA gene; without PLP (apo-form); also called apo-SHMT; apoSHMT; source: apo-form prepared with L-cysteine as for apo-YggS
# T2 sequence (looked up): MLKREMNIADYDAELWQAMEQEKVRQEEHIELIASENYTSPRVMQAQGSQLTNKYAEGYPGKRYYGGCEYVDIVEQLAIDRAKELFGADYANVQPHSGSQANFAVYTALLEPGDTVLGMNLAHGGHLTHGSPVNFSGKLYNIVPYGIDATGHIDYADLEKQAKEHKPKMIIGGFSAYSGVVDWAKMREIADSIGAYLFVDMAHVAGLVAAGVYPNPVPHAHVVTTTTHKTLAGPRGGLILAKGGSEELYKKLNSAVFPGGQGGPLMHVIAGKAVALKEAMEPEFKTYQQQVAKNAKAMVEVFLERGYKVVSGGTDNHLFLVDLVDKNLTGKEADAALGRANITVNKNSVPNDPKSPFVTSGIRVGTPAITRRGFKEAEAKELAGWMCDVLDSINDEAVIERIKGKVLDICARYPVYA
Molecule,Kd [1] [nM],Kd [2] [nM],time to reach PLP binding equilibrium [3] [s],"Kd ([4]; dissociation constant (K D), ligand binding to WT apo-YggS, fluorescence change, 50 mM NaHEPES pH 7.6)",stoichiometry ratio of PLP binding ([4]; titration with 1 μM apo-YggS),Kd [5] [nM]
"Cc1ncc(COP(=O)(O)O)c(C=O)c1O [PLP, pyridoxal 5′‐phosphate]",~50000,~5,≤ 3,1.3 nM and ~1 nM,one,–
"Escherichia coli pyridoxal 5'-phosphate homeostasis protein (YggS), wild type, holo-form (natural protein, E. coli, UniProt P67080 1-234, looked up, PLP covalently bound to Lys36 through a Schiff base linkage, YggS (PLP homeostasis protein, PLPHP) of E. coli; K233 and K234 are the last two residues; Two wild-type constructs were made in pET28b(+): His-tag at the C-terminal end (NcoI/XhoI, pET28yggS) and His-tag at the N-terminal end (NdeI/EcoRI); Samples from the standard purification held about 70-80% PLP per monomer; also called holo-YggS; YggS-PLP; source: E. coli HMS174(DE3), purified (ammonium …)) MNDIAHNLAQVRDKISAAATRCGRSPEEITLLAVSKTKPASAIAEAIDAGQRQFGENYVQEGVDKIRHFQELGVTGLEWHFIGPLQSNKSRLVAEHFDWCHTIDRLRIATRLNDQRPAELPPLNVLIQINISDENSKSGIQLAELDELAAAVAELPRLRLRGLMAIPAPESEYVRQFEVARQMAVAFAGLKTRYPHIDTLSLGMSDDMEAAIAAGSTMVRIGTAIFGARDYSKK",–,–,–,–,–,4800 ± 800
